± gives the expanded uncertainty stated by the source.
Test: mn = molality of the nth substance listed, in mol/kg
Details: 101 kPa, Liquid; for viscosity: Capillary tube (Ostwald / Ubbelohde) method; for mass density: Vibrating tube method

## Cc1ncc(CO)c(CO)c1O.Cl [5-hydroxy-6-methyl-3,4-pyridinedimethanol hydrochloride] + O
288.15 K, m1 = 0.0202
  viscosity: 1.145 ± 0.022 mPa·s
  mass density: 1000.32 ± 1.1 kg/m3
288.15 K, m1 = 0.0365
  viscosity: 1.151 ± 0.022 mPa·s
  mass density: 1001.26 ± 1.1 kg/m3
288.15 K, m1 = 0.0529
  viscosity: 1.157 ± 0.022 mPa·s
  mass density: 1002.19 ± 1.1 kg/m3
288.15 K, m1 = 0.0695
  viscosity: 1.163 ± 0.022 mPa·s
  mass density: 1003.11 ± 1.1 kg/m3
288.15 K, m1 = 0.0863
  viscosity: 1.169 ± 0.022 mPa·s
  mass density: 1003.98 ± 1.1 kg/m3
288.15 K, m1 = 0.1032
  viscosity: 1.175 ± 0.022 mPa·s
  mass density: 1004.86 ± 1.1 kg/m3
298.15 K, m1 = 0.0202
  viscosity: 0.8984 ± 0.021 mPa·s
  mass density: 998.28 ± 1.1 kg/m3
298.15 K, m1 = 0.0365
  viscosity: 0.9043 ± 0.021 mPa·s
  mass density: 999.22 ± 1.1 kg/m3
298.15 K, m1 = 0.0529
  viscosity: 0.9103 ± 0.021 mPa·s
  mass density: 1000.15 ± 1.1 kg/m3
298.15 K, m1 = 0.0695
  viscosity: 0.9163 ± 0.021 mPa·s
  mass density: 1001.07 ± 1.1 kg/m3
298.15 K, m1 = 0.0863
  viscosity: 0.9224 ± 0.022 mPa·s
  mass density: 1001.99 ± 1.1 kg/m3
298.15 K, m1 = 0.1032
  viscosity: 0.9286 ± 0.022 mPa·s
  mass density: 1002.9 ± 1.1 kg/m3
308.15 K, m1 = 0.0202
  viscosity: 0.7266 ± 0.021 mPa·s
  mass density: 995.25 ± 1.1 kg/m3
308.15 K, m1 = 0.0365
  viscosity: 0.7312 ± 0.021 mPa·s
  mass density: 996.18 ± 1.1 kg/m3
308.15 K, m1 = 0.0529
  viscosity: 0.7358 ± 0.021 mPa·s
  mass density: 997.09 ± 1.1 kg/m3
308.15 K, m1 = 0.0695
  viscosity: 0.7404 ± 0.021 mPa·s
  mass density: 997.99 ± 1.1 kg/m3
308.15 K, m1 = 0.0863
  viscosity: 0.7451 ± 0.021 mPa·s
  mass density: 998.89 ± 1.1 kg/m3
308.15 K, m1 = 0.1032
  viscosity: 0.7498 ± 0.021 mPa·s
  mass density: 999.78 ± 1.1 kg/m3
318.15 K, m1 = 0.0202
  viscosity: 0.6009 ± 0.021 mPa·s
  mass density: 991.43 ± 1.1 kg/m3
318.15 K, m1 = 0.0365
  viscosity: 0.6048 ± 0.021 mPa·s
  mass density: 992.35 ± 1.1 kg/m3
318.15 K, m1 = 0.0529
  viscosity: 0.6087 ± 0.021 mPa·s
  mass density: 993.26 ± 1.1 kg/m3
318.15 K, m1 = 0.0695
  viscosity: 0.6127 ± 0.021 mPa·s
  mass density: 994.16 ± 1.1 kg/m3
318.15 K, m1 = 0.0863
  viscosity: 0.6168 ± 0.021 mPa·s
  mass density: 995.06 ± 1.1 kg/m3
318.15 K, m1 = 0.1032
  viscosity: 0.6209 ± 0.021 mPa·s
  mass density: 995.96 ± 1.1 kg/m3

From the NIST ThermoML archive (doi:10.1016/j.jct.2016.08.004)
